From patent US10597380B2, “Pyridazinone-based broad spectrum anti-influenza inhibitors” (Hoffmann-La Roche Inc., priority 2017, dated 2020)

These compounds were tested on Influenza A/WSN/33-Luciferase virus (assay: microbe, parasite or virus in culture). Details: A549, 72 h, luciferase signal three days later, read-out: IC50 antiviral activity (Luciferase reporter assay).
Type: cell-based

Question: How did the IC50 turn out when `Cn1cccc(Nc2nn(-c3ccc(OC(F)(F)F)cc3)c(=O)c3ccccc23)c1=O` [Example 1, 4-[(1-methyl-2-oxo-3-pyridyl)amino]-2-[4-(trifluoromethoxy)phenyl]phthalazin-1-one] was run?
Answer: 22 nM

Question: `O=c1[nH]cccc1Nc1nn(-c2ccc(OC(F)(F)F)cc2)c(=O)c2ccccc12` [Example 2, 4-[(2-oxo-1H-pyridin-3-yl)amino]-2-[4-(trifluoromethoxy)phenyl]phthalazin-1-one] was tested. Which IC50 did it give?
Answer: 54 nM

Question: How did the IC50 turn out when `COC(=O)Cn1cccc(Nc2nn(-c3ccc(OC(F)(F)F)cc3)c(=O)c3ccccc23)c1=O` [Example 3, methyl 2-[2-oxo-3-[[4-oxo-3-[4-(trifluoromethoxy)phenyl]phthalazin-1-yl]amino]-1-pyridyl]acetate] was run?
Answer: 38 nM

Question: With `COC(=O)C(C)(C)Cn1cccc(Nc2nn(-c3ccc(OC(F)(F)F)cc3)c(=O)c3ccccc23)c1=O` [Example 4, methyl 2,2-dimethyl-3-[2-oxo-3-[[4-oxo-3-[4-(trifluoromethoxy)phenyl]phthalazin-1-yl]amino]-1-pyridyl]propanoate] as the compound, how does the IC50 read?
Answer: 489 nM

Question: Which IC50 does the source give for `CCOC(=O)COCCn1cccc(Nc2nn(-c3ccc(OC(F)(F)F)cc3)c(=O)c3ccccc23)c1=O` [Example 5, ethyl 2-[2-[2-oxo-3-[[4-oxo-3-[4-(trifluoromethoxy)phenyl]phthalazin-1-yl]amino]-1-pyridyl]ethoxy]acetate] here?
Answer: 485 nM

Question: Which IC50 does the source give for `COC(=O)[C@H]1CCCN1CCn1cccc(Nc2nn(-c3ccc(OC(F)(F)F)cc3)c(=O)c3ccccc23)c1=O` [Example 6, methyl (2R)-1-[2-[2-oxo-3-[[4-oxo-3-[4-(trifluoromethoxy)phenyl]phthalazin-1-yl]amino]-1-pyridyl]ethyl]pyrrolidine-2-carboxylate] here?
Answer: 52 nM

Question: `Cc1cc(OC(F)(F)F)ccc1-n1nc(Nc2cccn(C)c2=O)c2ccccc2c1=O` [Example 7, 4-[(1-methyl-2-oxo-3-pyridyl)amino]-2-[2-methyl-4-(trifluoromethoxy)phenyl]phthalazin-1-one] was tested. Which IC50 did it give?
Answer: 4340 nM

Question: For `Cn1cccc(Nc2nn(-c3ccc(C(C)(C)C)nc3)c(=O)c3ccccc23)c1=O` [Example 8, 2-(6-tert-butyl-3-pyridyl)-4-[(1-methyl-2-oxo-3-pyridyl)amino]phthalazin-1-one], which IC50 is on record?
Answer: 73 nM

Question: `Cn1cccc(Nc2nn(-c3cnc(C(C)(C)C)nc3)c(=O)c3ccccc23)c1=O` [Example 9, 2-(2-tert-butylpyrimidin-5-yl)-4-[(1-methyl-2-oxo-3-pyridyl)amino]phthalazin-1-one] was tested. Which IC50 did it give?
Answer: 275 nM

Question: With `Cn1cccc(Nc2nn(-c3ccc(C4(C)COC4)cc3)c(=O)c3ccccc23)c1=O` [Example 10, 2-[4-(3-methyloxetan-3-yl)phenyl]-4-[(1-methyl-2-oxo-3-pyridyl)amino]phthalazin-1-one] as the compound, how does the IC50 read?
Answer: 259 nM

Question: `Cn1cccc(Nc2nn(-c3ccc(C4COC4)cc3)c(=O)c3ccccc23)c1=O` [Example 11, 4-[(1-methyl-2-oxo-3-pyridyl)amino]-2-[4-(oxetan-3-yl)phenyl]phthalazin-1-one] was tested. Which IC50 did it give?
Answer: 2010 nM

Question: How did the IC50 turn out when `Cn1cccc(Nc2nn(-c3ccc(C4CC4)cc3)c(=O)c3ccccc23)c1=O` [Example 12, 2-(4-cyclopropylphenyl)-4-[(1-methyl-2-oxo-3-pyridyl)amino]phthalazin-1-one] was run?
Answer: 407 nM

Question: How did the IC50 turn out when `COCCOc1ccc(-n2nc(Nc3cccn(C)c3=O)c3ccccc3c2=O)cc1` [Example 13, 2-[4-(2-methoxyethoxy)phenyl]-4-[(1-methyl-2-oxo-3-pyridyl)amino]phthalazin-1-one] was run?
Answer: 1510 nM

Question: With `Cn1cccc(Nc2nn(-c3ccc(C(C)(C)C)cc3)c(=O)c3ccccc23)c1=O` [Example 14, 2-(4-tert-butylphenyl)-4-[(1-methyl-2-oxo-3-pyridyl)amino]phthalazin-1-one] as the compound, how does the IC50 read?
Answer: 109 nM

Question: With `CC(C)(C)c1ccc(-n2nc(Nc3ccc[nH]c3=O)c3ccccc3c2=O)cc1` [Example 15, 2-(4-tert-butylphenyl)-4-[(2-oxo-1H-pyridin-3-yl)amino]phthalazin-1-one] as the compound, how does the IC50 read?
Answer: 132 nM

Question: With `COc1ccc2c(Nc3cccn(C)c3=O)nn(-c3ccc(OC(F)(F)F)cc3)c(=O)c2c1` [Example 16, 7-methoxy-4-[(1-methyl-2-oxo-3-pyridyl)amino]-2-[4-(trifluoromethoxy)phenyl]phthalazin-1-one] as the compound, how does the IC50 read?
Answer: 12 nM

Question: Which IC50 does the source give for `Cn1cccc(Nc2nn(-c3ccc(OC(F)(F)F)cc3)c(=O)c3c(F)cccc23)c1=O` [Example 17, 8-fluoro-4-[(1-methyl-2-oxo-3-pyridyl)amino]-2-[4-(trifluoromethoxy)phenyl]phthalazin-1-one] here?
Answer: 100 nM

Question: Which IC50 does the source give for `Cn1cccc(Nc2nn(-c3ccc(OC(F)(F)F)cc3)c(=O)c3cccc(F)c23)c1=O` [Example 18, 5-fluoro-4-[(1-methyl-2-oxo-3-pyridyl)amino]-2-[4-(trifluoromethoxy)phenyl]phthalazin-1-one] here?
Answer: 122 nM

Question: For `COc1cccc2c(=O)n(-c3ccc(OC(F)(F)F)cc3)nc(Nc3cccn(C)c3=O)c12` [Example 19, 5-methoxy-4-[(1-methyl-2-oxo-3-pyridyl)amino]-2-[4-(trifluoromethoxy)phenyl]phthalazin-1-one], which IC50 is on record?
Answer: 59500 nM

Question: How did the IC50 turn out when `CCc1ccc2c(Nc3cccn(C)c3=O)nn(-c3ccc(C(C)(C)C)cc3)c(=O)c2c1` [Example 20, 2-(4-tert-butylphenyl)-7-ethyl-4-[(1-methyl-2-oxo-3-pyridyl)amino]phthalazin-1-one] was run?
Answer: 4 nM

Question: `Cn1cccc(Nc2nn(-c3ccc(OC(F)(F)F)cc3)c(=O)c3c2CCCC3)c1=O` [Example 21, 4-[(1-methyl-2-oxo-3-pyridyl)amino]-2-[4-(trifluoromethoxy)phenyl]-5,6,7,8-tetrahydrophthalazin-1-one] was tested. Which IC50 did it give?
Answer: 5 nM

Question: `Cn1cncc(Nc2nn(-c3ccc(OC(F)(F)F)cc3)c(=O)c3c2CCCC3)c1=O` [Example 22, 4-[(1-methyl-6-oxo-pyrimidin-5-yl)amino]-2-[4-(trifluoromethoxy)phenyl]-5,6,7,8-tetrahydrophthalazin-1-one] was tested. Which IC50 did it give?
Answer: 16 nM

Question: For `COC(=O)c1cc(Nc2nn(-c3ccc(OC(F)(F)F)cc3)c(=O)c3c2CCCC3)c(=O)n(C)c1` [Example 23, methyl 1-methyl-6-oxo-5-[[4-oxo-3-[4-(trifluoromethoxy)phenyl]-5,6,7,8-tetrahydrophthalazin-1-yl]amino]pyridine-3-carboxylate], which IC50 is on record?
Answer: 712 nM

Question: For `COC(=O)Cn1cccc(Nc2nn(-c3ccc(OC(F)(F)F)cc3)c(=O)c3c2CCCC3)c1=O` [Example 24, methyl 2-[2-oxo-3-[[4-oxo-3-[4-(trifluoromethoxy)phenyl]-5,6,7,8-tetrahydrophthalazin-1-yl]amino]-1-pyridyl]acetate], which IC50 is on record?
Answer: 22 nM

Question: For `CN(C)CCn1cncc(Nc2nn(-c3ccc(OC(F)(F)F)cc3)c(=O)c3c2CCCC3)c1=O` [Example 25, 4-[[1-[2-(dimethylamino)ethyl]-6-oxo-pyrimidin-5-yl]amino]-2-[4-(trifluoromethoxy)phenyl]-5,6,7,8-tetrahydrophthalazin-1-one], which IC50 is on record?
Answer: 14 nM

Question: Which IC50 does the source give for `Cn1cccc(Nc2nn(-c3ccc(C(C)(C)C)nc3)c(=O)c3c2CCCC3)c1=O` [Example 26, 2-(6-tert-butyl-3-pyridyl)-4-[(1-methyl-2-oxo-3-pyridyl)amino]-5,6,7,8-tetrahydrophthalazin-1-one] here?
Answer: 25 nM

Question: `Cn1cccc(Nc2nn(-c3ccc(OC(F)F)cc3)c(=O)c3c2CCCC3)c1=O` [Example 27, 2-[4-(difluoromethoxy)phenyl]-4-[(1-methyl-2-oxo-3-pyridyl)amino]-5,6,7,8-tetrahydrophthalazin-1-one] was tested. Which IC50 did it give?
Answer: 41 nM

Question: For `Cn1cccc(Nc2nn(-c3ccc(OC(F)(F)F)cc3)c(=O)c3c2CCC3)c1=O` [Example 28, 1-[(1-methyl-2-oxo-3-pyridyl)amino]-3-[4-(trifluoromethoxy)phenyl]-6,7-dihydro-5H-cyclopenta[d]pyridazin-4-one], which IC50 is on record?
Answer: 8 nM

Question: `Cc1cc(Nc2nn(-c3ccc(OC(F)(F)F)cc3)c(=O)c3c2CCC3)c(=O)n(C)n1` [Example 29, 1-[(2,6-dimethyl-3-oxo-pyridazin-4-yl)amino]-3-[4-(trifluoromethoxy)phenyl]-6,7-dihydro-5H-cyclopenta[d]pyridazin-4-one] was tested. Which IC50 did it give?
Answer: 22 nM

Question: Which IC50 does the source give for `Cn1cncc(Nc2nn(-c3ccc(OC(F)(F)F)cc3)c(=O)c3c2CCC3)c1=O` [Example 30, 1-[(1-methyl-6-oxo-pyrimidin-5-yl)amino]-3-[4-(trifluoromethoxy)phenyl]-6,7-dihydro-5H-cyclopenta[d]pyridazin-4-one] here?
Answer: 37 nM

Question: How did the IC50 turn out when `Cn1cc(F)cc(Nc2nn(-c3ccc(OC(F)(F)F)cc3)c(=O)c3c2CCC3)c1=O` [Example 31, 1-[(5-fluoro-1-methyl-2-oxo-3-pyridyl)amino]-3-[4-(trifluoromethoxy)phenyl]-6,7-dihydro-5H-cyclopenta[d]pyridazin-4-one] was run?
Answer: 8 nM

Question: `Cc1cc(Nc2nn(-c3ccc(OC(F)(F)F)cc3)c(=O)c3c2CCC3)c(=O)n(C)c1` [Example 32, 1-[(1,5-dimethyl-2-oxo-3-pyridyl)amino]-3-[4-(trifluoromethoxy)phenyl]-6,7-dihydro-5H-cyclopenta[d]pyridazin-4-one] was tested. Which IC50 did it give?
Answer: 12 nM

Question: With `Cn1cc(Cl)cc(Nc2nn(-c3ccc(OC(F)(F)F)cc3)c(=O)c3c2CCC3)c1=O` [Example 33, 1-[(5-chloro-1-methyl-2-oxo-3-pyridyl)amino]-3-[4-(trifluoromethoxy)phenyl]-6,7-dihydro-5H-cyclopenta[d]pyridazin-4-one] as the compound, how does the IC50 read?
Answer: 6 nM

Question: For `Cn1cc(C(F)(F)F)cc(Nc2nn(-c3ccc(OC(F)(F)F)cc3)c(=O)c3c2CCC3)c1=O` [Example 34, 1-[[1-methyl-2-oxo-5-(trifluoromethyl)-3-pyridyl]amino]-3-[4-(trifluoromethoxy)phenyl]-6,7-dihydro-5H-cyclopenta[d]pyridazin-4-one], which IC50 is on record?
Answer: 195 nM

Question: Which IC50 does the source give for `CCc1cc(Nc2nn(-c3ccc(OC(F)(F)F)cc3)c(=O)c3c2CCC3)c(=O)n(C)c1` [Example 35, 1-[(5-ethyl-1-methyl-2-oxo-3-pyridyl)amino]-3-[4-(trifluoromethoxy)phenyl]-6,7-dihydro-5H-cyclopenta[d]pyridazin-4-one] here?
Answer: 68 nM

Question: Which IC50 does the source give for `CC(C)c1cc(Nc2nn(-c3ccc(OC(F)(F)F)cc3)c(=O)c3c2CCC3)c(=O)n(C)c1` [Example 36, 1-[(5-isopropyl-1-methyl-2-oxo-3-pyridyl)amino]-3-[4-(trifluoromethoxy)phenyl]-6,7-dihydro-5H-cyclopenta[d]pyridazin-4-one] here?
Answer: 579 nM
